Experiments:
Format in all cases: functional
NCI-H23 [1] = experiment: Cytotoxicity against human NCI-H23 cells assessed as cell growth at 10^-4 M after 48 hrs by SRB assay relative to control; conditions: NCI-H23, 48 h, read-out: Activity
SW-620 [2] = experiment: Cytotoxicity against human SW620 cells assessed as cell growth at 10^-4 M after 48 hrs by SRB assay relative to control; conditions: SW-620, 48 h, read-out: Activity
SNB-75 [3] = experiment: Cytotoxicity against human SNB75 cells after 48 hrs by SRB assay; conditions: SNB-75, 48 h
RXF 393 [4] = experiment: Cytotoxicity against human RXF393 cells after 48 hrs by SRB assay; conditions: RXF 393, 48 h
SNB-75 [5] = experiment: Cytotoxicity against human SNB75 cells assessed as cell growth at 10^-4 M after 48 hrs by SRB assay relative to control; conditions: SNB-75, 48 h, read-out: Activity
[6] = Cytotoxicity against human Hs 578T cells after 48 hrs by SRB assay
HOP-62 = experiment: Cytotoxicity against human HOP62 cells assessed as cell growth at 10^-8 M after 48 hrs by SRB assay relative to control; conditions: HOP-62, 48 h, read-out: Activity
[7] = Cytotoxicity against human HCT116 cells assessed as cell growth at 10^-8 M after 48 hrs by SRB assay relative to control; conditions: HCT-116, 48 h, read-out: Activity
HT-29 = experiment: Cytotoxicity against human HT-29 cells assessed as cell growth at 10^-8 M after 48 hrs by SRB assay relative to control; conditions: HT-29, 48 h, read-out: Activity
KM12 = experiment: Cytotoxicity against human KM12 cells assessed as cell growth at 10^-8 M after 48 hrs by SRB assay relative to control; conditions: KM12, 48 h, read-out: Activity
SK-MEL-2 = experiment: Cytotoxicity against human SK-MEL-2 cells assessed as cell growth at 10^-4 M after 48 hrs by SRB assay relative to control; conditions: SK-MEL-2, 48 h, read-out: Activity
[8] = Cytotoxicity against human NCI-ADR-RES cells assessed as cell growth at 10^-4 M after 48 hrs by SRB assay relative to control; conditions: read-out: Activity
[9] = Cytotoxicity against human PC3 cells assessed as cell growth at 10^-4 M after 48 hrs by SRB assay relative to control; conditions: PC-3, 48 h, read-out: Activity
MCF7 [10] = experiment: Cytotoxicity against human MCF7 cells assessed as cell growth at 10^-4 M after 48 hrs by SRB assay relative to control; conditions: MCF7, 48 h, read-out: Activity
SK-MEL-28 = experiment: Cytotoxicity against human SK-MEL-28 cells assessed as cell growth at 10^-8 M after 48 hrs by SRB assay relative to control; conditions: SK-MEL-28, 48 h, read-out: Activity
SK-MEL-5 = experiment: Cytotoxicity against human SK-MEL-5 cells assessed as cell growth at 10^-8 M after 48 hrs by SRB assay relative to control; conditions: SK-MEL-5, 48 h, read-out: Activity
[11] = Cytotoxicity against human NCI-ADR-RES cells assessed as cell growth at 10^-8 M after 48 hrs by SRB assay relative to control; conditions: read-out: Activity
[12] = Cytotoxicity against human SKOV3 cells assessed as cell growth at 10^-8 M after 48 hrs by SRB assay relative to control; conditions: SK-OV-3, 48 h, read-out: Activity
RXF 393 [13] = experiment: Cytotoxicity against human RXF393 cells assessed as cell growth at 10^-8 M after 48 hrs by SRB assay relative to control; conditions: RXF 393, 48 h, read-out: Activity
MCF7 [14] = experiment: Cytotoxicity against human MCF7 cells assessed as cell growth at 10^-8 M after 48 hrs by SRB assay relative to control; conditions: MCF7, 48 h, read-out: Activity
MDA-MB-231 = experiment: Cytotoxicity against human MDA-MB-231 cells assessed as cell growth at 10^-8 M after 48 hrs by SRB assay relative to control; conditions: MDA-MB-231, 48 h, read-out: Activity
A549 [15] = experiment: Cytotoxicity against human A549 cells assessed as cell growth at 10^-7 M after 48 hrs by SRB assay relative to control; conditions: A549, 48 h, read-out: Activity
COLO 205 = experiment: Cytotoxicity against human COLO205 cells assessed as cell growth at 10^-7 M after 48 hrs by SRB assay relative to control; conditions: COLO 205, 48 h, read-out: Activity
MDA-MB-435 = experiment: Cytotoxicity against human MDA-MB-435 cells assessed as cell growth at 10^-7 M after 48 hrs by SRB assay relative to control; conditions: MDA-MB-435, 48 h, read-out: Activity
K562 = experiment: Cytotoxicity against human K562 cells after 48 hrs by SRB assay; conditions: K562, 48 h
A549 [16] = experiment: Cytotoxicity against human A549 cells after 48 hrs by SRB assay; conditions: A549, 48 h
NCI-H23 [17] = experiment: Cytotoxicity against human NCI-H23 cells after 48 hrs by SRB assay; conditions: NCI-H23, 48 h
SW-620 [18] = experiment: Cytotoxicity against human SW620 cells after 48 hrs by SRB assay; conditions: SW-620, 48 h
[19] = Cytotoxicity against human NCI-ADR-RES cells assessed as cell growth at 10^-7 M after 48 hrs by SRB assay relative to control; conditions: read-out: Activity
A498 [20] = experiment: Cytotoxicity against human A498 cells assessed as cell growth at 10^-7 M after 48 hrs by SRB assay relative to control; conditions: A498, 48 h, read-out: Activity
MOLT-4 = experiment: Cytotoxicity against human MOLT4 cells assessed as cell growth at 10^-6 M after 48 hrs by SRB assay relative to control; conditions: MOLT-4, 48 h, read-out: Activity
[21] = Cytotoxicity against human EKVX cells assessed as cell growth at 10^-6 M after 48 hrs by SRB assay relative to control; conditions: read-out: Activity
SF-268 = experiment: Cytotoxicity against human SF268 cells assessed as cell growth at 10^-6 M after 48 hrs by SRB assay relative to control; conditions: SF-268, 48 h, read-out: Activity
[22] = Cytotoxicity against human NCI-ADR-RES cells assessed as cell growth at 10^-6 M after 48 hrs by SRB assay relative to control; conditions: read-out: Activity
A498 [23] = experiment: Cytotoxicity against human A498 cells assessed as cell growth at 10^-6 M after 48 hrs by SRB assay relative to control; conditions: A498, 48 h, read-out: Activity
[24] = Cytotoxicity against human EKVX cells assessed as cell growth at 10^-4 M after 48 hrs by SRB assay relative to control; conditions: read-out: Activity
[25] = read-out: LC50 (the source's name)

`COc1ccc(CCN2COc3c([C@@H](C)CCC=C(C)C)ccc(C)c3C2)cc1OC` showed a growth at 100 µM (NCI-H23 [1]) of -92%, a growth at 100 µM (SW-620 [2]) of -86% and a GI50 (SNB-75 [3]) of 12.5 µM. The LC50 (SNB-75 [3]) was over 100 µM, the TGI (SNB-75 [3]) was 35.4 µM and the GI50 (RXF 393 [4]) was 1.73 µM. The LC50 (concentration killing 50% of cells) (RXF 393 [4]) was 18.2 µM, the TGI (RXF 393 [4]) was 4.85 µM and the growth at 100 µM (SNB-75 [5]) was -50%. The GI50 [6] was 3.94 µM, the LC50 [6] was 65.2 µM and the TGI [6] was 17.3 µM. It also gave a growth at 0.01 µM (HOP-62) of 101%, a growth at 0.01 µM [7] of 98% and a growth at 0.01 µM (HT-29) of 97%. For the same compound, the growth at 0.01 µM (KM12) was 98%, the growth at 100 µM (SK-MEL-2) was -95% and the growth at 100 µM [8] was -90%. For the same compound, the growth at 100 µM [9] was -61%, the growth at 100 µM (MCF7 [10]) was -92% and the growth at 0.01 µM (SK-MEL-28) was 106%. It also gave a growth at 0.01 µM (SK-MEL-5) of 96%, a growth at 0.01 µM [11] of 98% and a growth at 0.01 µM [12] of 97%. It also gave a growth at 0.01 µM (RXF 393 [13]) of 70%, a growth at 0.01 µM (MCF7 [14]) of 91% and a growth at 0.01 µM (MDA-MB-231) of 100%. The growth at 0.1 µM (A549 [15]) was 96%, the growth at 0.1 µM (COLO 205) was 103% and the growth at 0.1 µM (MDA-MB-435) was 95%. It also gave a GI50 (K562) of 3.7 µM, a TGI (K562) of 93.5 µM and a CC50 (K562; [25]) of over 100 µM. For the same compound, the GI50 (A549 [16]) was 10.3 µM, the LC50 (A549 [16]) was 96.3 µM and the TGI (A549 [16]) was 31.5 µM. It also gave a GI50 (NCI-H23 [17]) of 2.55 µM, an LC50 (NCI-H23 [17]) of 21.8 µM and a TGI (NCI-H23 [17]) of 6.08 µM. It also gave a GI50 (SW-620 [18]) of 1.91 µM, a TGI (SW-620 [18]) of 4.08 µM and a CC50 (SW-620 [18]; [25]) of 8.72 µM. It also gave a growth at 0.1 µM [19] of 99%, a growth at 0.1 µM (A498 [20]) of 97% and a growth at 1 µM (MOLT-4) of 85%. For the same compound, the growth at 1 µM [21] was 91%, the growth at 1 µM (SF-268) was 67% and the growth at 1 µM [22] was 96%. It also gave a growth at 1 µM (A498 [23]) of 68% and a growth at 100 µM [24] of -40%.
